Data: PubChem BioAssay AID1918948 (Molecular Pharmacology Branch, DTP, NCI, 2023)
Where “and” joins values, the source holds several entries; their conditions need not be identical. Identical values can stand only once. Blank lines part the entries; values can stand above or below the compound they belong to.

System: K-562 leukemia growth, % test/control
Experiment: Anticancer human tumor K-562 cell line growth inhibition;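 also: spheroids exposed to compounds for 7 days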;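 as to viability, T/C: 100% = DMSO vehicle wells and lower values mean fewer viable cells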
Conditions: spheroids with HUVEC and MSC; for viability, T/C: stronger effect = lower value
Outline: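 Multicellular complex spheroids of tumor cells with human endothelial cells (HUVEC) and mesenchymal stem cells; the LSD1 inhibitor iadademstat was combined with standard-of-care or investigational agents. Top concentration at or near clinical Cmax, half-log dilutions; final DMSO ≤0.25%.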

[1] = curve of first compound, second compound 0.1 µM
[2] = curve of first compound, second compound 0.316 µM
[3] = curve of first compound, second compound 1 µM
[4] = curve of first compound, second compound 3.16 µM
[5] = curve of first compound, second compound 10 µM
[6] = second compound 0.1 µM, first compound 0.00949 µM
[7] = second compound 0.1 µM, first compound 0.03 µM
[8] = second compound 0.1 µM, first compound 0.0949 µM
[9] = second compound 0.1 µM, first compound 0.3 µM
[10] = second compound 0.316 µM, first compound 0.00949 µM
[11] = second compound 0.316 µM, first compound 0.03 µM
[12] = second compound 0.316 µM, first compound 0.0949 µM
[13] = second compound 0.316 µM, first compound 0.3 µM
[14] = second compound 1 µM, first compound 0.00949 µM
[15] = second compound 1 µM, first compound 0.03 µM
[16] = second compound 1 µM, first compound 0.0949 µM
[17] = second compound 1 µM, first compound 0.3 µM
[18] = second compound 3.16 µM, first compound 0.00949 µM
[19] = second compound 3.16 µM, first compound 0.03 µM
[20] = second compound 3.16 µM, first compound 0.0949 µM
[21] = second compound 3.16 µM, first compound 0.3 µM
[22] = second compound 10 µM, first compound 0.00949 µM
[23] = second compound 10 µM, first compound 0.03 µM
[24] = second compound 10 µM, first compound 0.0949 µM
[25] = second compound 10 µM, first compound 0.3 µM

Compound: COc1cc(C2c3cc4c(cc3C(OC3OC5COC(C)OC5C(O)C3O)C3COC(=O)C23)OCO4)cc(OC)c1O (stereo unspecified) + NC1CC1c1ccc(-c2cccc(O)c2)cc1
IC50 [1]: 32.3 nM
IC50 [2]: 29.2 nM
IC50 [3]: 25.2 nM
IC50 [4]: 21.1 nM
IC50 [5]: 12.4 nM
viability, T/C [6]: 89.1%
viability, T/C [7]: 34.1%
viability, T/C [8]: 40%
viability, T/C [9]: 32.2%
viability, T/C (second compound 0.1 µM, first compound 0.949 µM): 5.98%
viability, T/C (second compound 0.1 µM, first compound 3 µM): 1.51%
viability, T/C [10]: 82.5%
viability, T/C [11]: 33.9%
viability, T/C [12]: 40%
viability, T/C [13]: 26.1%
viability, T/C (second compound 0.316 µM, first compound 0.949 µM): 4.21%
viability, T/C (second compound 0.316 µM, first compound 3 µM): 1.39%
viability, T/C [14]: 76.1%
viability, T/C [15]: 31.1%
viability, T/C [16]: 39%
viability, T/C [17]: 22.8%
viability, T/C (second compound 1 µM, first compound 0.949 µM): 3.44%
viability, T/C (second compound 1 µM, first compound 3 µM): 2.06%
viability, T/C [18]: 68.8%
viability, T/C [19]: 28.7%
viability, T/C [20]: 40.2%
viability, T/C [21]: 20%
viability, T/C (second compound 3.16 µM, first compound 0.949 µM): 3.6%
viability, T/C (second compound 3.16 µM, first compound 3 µM): 2.13%
viability, T/C [22]: 57.5%
viability, T/C [23]: 28.1%
viability, T/C [24]: 34.1%
viability, T/C [25]: 14.8%
viability, T/C (second compound 10 µM, first compound 0.949 µM): 2.21%
viability, T/C (second compound 10 µM, first compound 3 µM): 1.35%

Compound: Nc1ncn(C2CC(O)C(CO)S2)c(=O)n1 (stereo unspecified) + NC1CCC(NC2CC2c2ccccc2)CC1
IC50 [1]: 175 nM
IC50 [2]: 171 nM
IC50 [3]: 148 nM
IC50 [4]: 136 nM
IC50 [5]: 60 nM
viability, T/C (second compound 0.1 µM, first compound 0.000949 µM): 102%
viability, T/C (second compound 0.1 µM, first compound 0.003 µM): 106%
viability, T/C [6]: 107%
viability, T/C [7]: 95.6%
viability, T/C [8]: 69%
viability, T/C [9]: 33.5%
viability, T/C (second compound 0.316 µM, first compound 0.000949 µM): 106%
viability, T/C (second compound 0.316 µM, first compound 0.003 µM): 108%
viability, T/C [10]: 108%
viability, T/C [11]: 95.7%
viability, T/C [12]: 68%
viability, T/C [13]: 33%
viability, T/C (second compound 1 µM, first compound 0.000949 µM): 108%
viability, T/C (second compound 1 µM, first compound 0.003 µM): 110%
viability, T/C [14]: 107%
viability, T/C [15]: 94.3%
viability, T/C [16]: 65.2%
viability, T/C [17]: 26.6%
viability, T/C (second compound 3.16 µM, first compound 0.000949 µM): 108%
viability, T/C (second compound 3.16 µM, first compound 0.003 µM): 111%
viability, T/C [18]: 106%
viability, T/C [19]: 89.2%
viability, T/C [20]: 60.3%
viability, T/C [21]: 28.4%
viability, T/C (second compound 10 µM, first compound 0.000949 µM): 102%
viability, T/C (second compound 10 µM, first compound 0.003 µM): 107%
viability, T/C [22]: 95.9%
viability, T/C [23]: 70.7%
viability, T/C [24]: 36.5%
viability, T/C [25]: 18.6%

Compound: Nc1ncn(C2CC(O)C(CO)O2)c(=O)n1 (stereo unspecified) + NC1CC1c1ccc(-c2cccc(O)c2)cc1
IC50 [1]: > 1000 nM
IC50 [2]: > 1000 nM
IC50 [3]: 988 nM
IC50 [4]: 772 nM
IC50 [5]: 166 nM
viability, T/C (second compound 0.1 µM, first compound 0.00316 µM): 106%
viability, T/C (second compound 0.1 µM, first compound 0.01 µM): 104%
viability, T/C (second compound 0.1 µM, first compound 0.0316 µM): 99.4%
viability, T/C (second compound 0.1 µM, first compound 0.1 µM): 89.7%
viability, T/C (second compound 0.1 µM, first compound 0.316 µM): 72.8%
viability, T/C (second compound 0.1 µM, first compound 1 µM): 65.1%
viability, T/C (second compound 0.316 µM, first compound 0.00316 µM): 101%
viability, T/C (second compound 0.316 µM, first compound 0.01 µM): 104%
viability, T/C (second compound 0.316 µM, first compound 0.0316 µM): 97.5%
viability, T/C (second compound 0.316 µM, first compound 0.1 µM): 86.1%
viability, T/C (second compound 0.316 µM, first compound 0.316 µM): 67.2%
viability, T/C (second compound 0.316 µM, first compound 1 µM): 55.6%
viability, T/C (second compound 1 µM, first compound 0.00316 µM): 101%
viability, T/C (second compound 1 µM, first compound 0.01 µM): 102%
viability, T/C (second compound 1 µM, first compound 0.0316 µM): 95.9%
viability, T/C (second compound 1 µM, first compound 0.1 µM): 85%
viability, T/C (second compound 1 µM, first compound 0.316 µM): 62.5%
viability, T/C (second compound 1 µM, first compound 1 µM): 50%
viability, T/C (second compound 3.16 µM, first compound 0.00316 µM): 102%
viability, T/C (second compound 3.16 µM, first compound 0.01 µM): 97.9%
viability, T/C (second compound 3.16 µM, first compound 0.0316 µM): 95.9%
viability, T/C (second compound 3.16 µM, first compound 0.1 µM): 80.4%
viability, T/C (second compound 3.16 µM, first compound 0.316 µM): 58.4%
viability, T/C (second compound 3.16 µM, first compound 1 µM): 47.6%
viability, T/C (second compound 10 µM, first compound 0.00316 µM): 96.9%
viability, T/C (second compound 10 µM, first compound 0.01 µM): 89.1%
viability, T/C (second compound 10 µM, first compound 0.0316 µM): 77.4%
viability, T/C (second compound 10 µM, first compound 0.1 µM): 58.7%
viability, T/C (second compound 10 µM, first compound 0.316 µM): 38.8%
viability, T/C (second compound 10 µM, first compound 1 µM): 31.9%

Now from value to compound, other results behind:

IC50 (curve of compound): > 10000 nM
Compound: CC(C)c1c(-c2ccccc2)nc2c(C#N)c[nH]n2c1=O
viability, T/C (compound 0.0316 µM): 104% and 100%
viability, T/C (compound 0.1 µM): 98.4% and 97%
viability, T/C (compound 0.316 µM): 102% and 101%
viability, T/C (compound 1 µM): 99% and 102%
viability, T/C (compound 3.16 µM): 106% and 109%
viability, T/C (compound 10 µM): 107% and 108%

IC50 (curve of compound): 47.6 nM and < 9.49 nM
Compound: NS(=O)(=O)OCC1CC(n2ccc3c(NC4CCc5ccccc54)ncnc32)CC1O (stereo unspecified)
viability, T/C (compound 0.00949 µM): 65.6% and 51.5%
viability, T/C (compound 0.03 µM): 47% and 34.4%
viability, T/C (compound 0.0949 µM): 49.3% and 36.1%
viability, T/C (compound 0.3 µM): 34.9% and 20.1%
viability, T/C (compound 0.949 µM): 18% and 13.5%
viability, T/C (compound 3 µM): 11.5% and 4.24%

IC50 (curve of compound): 17.4 nM and 14.8 nM
Compound: CC(C)CC(NC(=O)CNC(=O)c1cc(Cl)ccc1Cl)B1OC(=O)CC(CC(=O)O)(C(=O)O)O1 (stereo unspecified)
viability, T/C (compound 0.000316 µM): 103% and 97%
viability, T/C (compound 0.001 µM): 97.5% and 95.5%
viability, T/C (compound 0.00316 µM): 95.6% and 97.4%
viability, T/C (compound 0.01 µM): 74.2% and 68.6%
viability, T/C (compound 0.0316 µM): 24.2% and 13.3%
viability, T/C (compound 0.1 µM): 6.61% and 2.45%
